Laboratory results as given in US12540197B2, “Anti-tissue factor antibodies and antibody conjugates, compositions comprising anti-tissue factor antibodies or antibody conjugates, and methods of making and using anti-tissue factor antibodies and antibody conjugates” (SUTRO BIOPHARMA, INC., priority 2023, dated 2026).

Tested on: BxPC3 cells
Assay: Secondary ADC cell killing assay (antibody + anti-human Fc nanobody conjugated to SC236) on BxPC3
Type: cell-based
Settings: Table 15, scFv-Fc from SRP2842; nanobody-SC236 20 nM, 120 hrs
Protocol: The internalization ability of the lead antibodies was evaluated by an ADC cell killing assay on Tissue Factor positive BxPC3 cells. A total of 625 cells in a volume of 25 μL were seeded in each well of a 384-well flat bottom white polystyrene plate. Lead antibodies were formulated at 4-fold starting concentration in the cell culture medium and filtered through MultiScreenHTS 96-Well Filter Plates (Millipore; Billerica, Massachusetts). 12.5 μL of antibody was added into each treatment well, and 12.5 μL of anti-human Fc nanobody conjugated to SC236 was then added into each well at a fixed final concentration of 20 nM. Assay plates were cultured at 37° C. in a CO2 incubator for 120 hrs before assay. For cell viability measurement, 30 μL of Cell Titer-Glo® reagent (Promega Corp. Madison, WI) was added into each well, and plates were processed as per product instructions. Relative luminescence was measured on an ENVISION® plate reader (Perkin-Elmer; Waltham, MA). Relative luminescence readings were converted to percent viability using untreated cells as controls. Data was fitted with non-linear regression analysis, using a log (inhibitor) vs. response-variable slope, 4 parameter fit with GraphPad Prism (GraphPad v 5.0, Software; San Diego, California).

## Tisotumab
  BxPC3 Cell Killing Span (%): 94.7%
  EC50: 0.023 nM
